# Where two headings read alike, the source gives them in different places.
# What was measured:
# [1] = tested on: Aβ42 production by human neuroblastoma SH-SY5Y cells; experiment: Aβ42 production by SH-SY5Y cells, sandwich ELISA of conditioned medium; conditions: for activity in reducing the production of Aβ42 (in words): cell-based assay
# Protocol: We used the human Neuroblastoma SH-SY5Y cells for drug testing as a model for Aβ42 production. The cells were cultured in Dulbecco's modified Eagle's medium or Dulbecco's modified Eagle's medium/Ham's F-12 medium supplemented with 10% fetal bovine serum, 100 units/ml penicillin, and 100 μg/ml streptomycin in a humidified atmosphere of 95% air, 5% CO2 at 37° C. as per suppliers instructions. […] Cell toxicity was monitored using the MTT assay and all data reported are corrected for any cell loss.
# Sandwich Enzyme-Linked Immunosorbent Assay (sELISA) for Quantization of Aβ42:
# The capture antibody, detection antibody and secondary antibody as well as standard purified preparations of Aβ42 were obtained from Sigma-Aldrich. Cells were cultured for 24 h in the presence or absence of compounds and the conditioned medium was subjected to sELISA.
# [2] = tested on: human APP overexpressing Drosophila; experiment: Survival of human APP overexpressing Drosophila transgenic model; assay type: in vivo, Drosophila melanogaster; conditions: 100 mg/kg body weight/day with the food
# Protocol: The effect of cocrystal of niacin-eugenol/eugenol was tested in a Drosophila model which over expresses the human APP protein. The creation of the APP over expressing flies and other methods for these studies are as described previously by Greeve et al (See J. Neuroscience, 2004, 24:3899-3906). The targeted over/ectopic expression of APP in the brain using UAS promoter driven APP transgene, induced by a specific GAL4 trans-driver in the Drosophila model system was used. Adult flies, a total of 80 flies (4 males and 4 females per tube, 10 tubes) were fed right after their emergence and the survival was examined until the end of 9th day. The drugs to be tested were delivered with the food.
# [3] = In vivo pharmacokinetics (plasma and brain niacin and eugenol by HPLC); parameters: species or system male Swiss Albino mice; conditions: male, Swiss Albino, mouse
# Protocol: In vivo pharmacokinetic (PK) studies were conducted in male Swiss Albino mice. Niacin-Eugenol physical mixture or Niacin-Eugenol hybrid cocrystal was administered to the animals at a dose of 0.73 mmol/kg orally (n=2 mice per time point). […] Plasma was separated by centrifugation at 4000 rpm for 10 minutes and stored in ice for analysis. Animals were sacrificed at the above time points; and brains were excised, snap frozen in liquid nitrogen and stored at −80° C. Samples were analyzed by high-performance liquid chromatography (HPLC) with UV detection. […] The precipitated proteins were removed by centrifugation at 15000 rpm at 5° C. for 10 min. The supernatant was collected in HPLC vials and kept at 4° C. for analysis. 200 mg of the brain tissue was homogenized in Acetonitrile. The resultant homogenate was centrifuged at 15000 rpm for 10 minutes at 4° C. […] Pharmacokinetic parameters were calculated using WinNonLin v5.2 software. The plasma and brain samples were analyzed for Niacin and Eugenol concentrations using HPLC under the conditions shown below: […]
# [4] = Homo sapiens, SH-SY5Y, read-out: IC50 (μM) in cell based abeta assay
structure (smiles),measurement,setting,value
COc1cc(/C=C/C(=O)O)ccc1OC(=O)c1cccnc1 [Niacin-ferulic acid hybrid],IC50,[1]; [4],> 50 µM
COc1cc(CC2CO2)ccc1OC(=O)c1cccnc1 (stereo not drawn) [Niacin-eugenol epoxide hybrid],IC50,[1]; [4],17.5 µM
Oc1ccc(C=Cc2cc(O)cc(O)c2)cc1 [resveratrol],effect on survival compared to untreated flies,[2]; early time points,modest effect
same,effect on number of surviving flies compared to untreated flies,[2]; end of 9th day (FIG. 7),no statistically different effect
"C=CCc1ccc(OC(=O)c2cccnc2)c(OC)c1 [Niacin-eugenol hybrid, Nicotinic acid 4-allyl-2-methoxy-phenyl ester]",increase in Tmax for eugenol compared to physical mixture,[3],4 fold
same,IC50,[1]; [4],14 µM
same,activity in reducing the production of Aβ42 (in words),[1],most active among the series
same,activity in reducing the production of Aβ42 (in words),[1]; listed as niacin-eugenol ester linked hybrid,most potent
COc1ccc(/C=C\C(=O)O)cc1OC(=O)c1cccnc1 [Niacin-isofreulic acid hybrid],IC50,[1]; [4],36.8 µM
"O=C(O)c1cccnc1 [niacin, pyridine-3-carboxylic acid]",reduction of niacin IC50 in the presence of cinnamic acid,[1]; 5 μM cinnamic acid versus niacin alone,about 15%
same,reduction of niacin IC50 in the presence of curcumin,[1]; 5 μM curcumin versus niacin alone,about 27%
same,reduction of niacin IC50 in the presence of eugenol,[1]; 5 μM eugenol versus niacin alone,about 45%
same,reduction of niacin IC50 in the presence of meclofenamic acid,[1]; 5 μM meclofenamic acid versus niacin alone,about 33%
same,inhibitory effect of niacin on Aβ42 levels in the media,[1]; 5 and 10 μM niacin,good effect
same,inhibition of Aβ42 levels in the media,[1]; 25 and 50 μM niacin,100%
same,IC50,"[1]; Homo sapiens, SH-SY5Y, read-out: IC50 of niacin in the presence of cinnamic acid, in the presence of 5 μM of cinnamic acid",9.8 µM
same,IC50,"[1]; Homo sapiens, SH-SY5Y, read-out: IC50 of niacin in the presence of curcumin, in the presence of 5 μM of curcumin",7.5 µM
same,IC50,"[1]; Homo sapiens, SH-SY5Y, read-out: IC50 of niacin in the presence of eugenol, in the presence of 5 μM of eugenol",5.9 µM
same,IC50,"[1]; Homo sapiens, SH-SY5Y, read-out: IC50 of niacin in the presence of meclofenamic acid, in the presence of 5 μM of meclofenamic acid",7 µM
same,IC50,"[1]; Homo sapiens, SH-SY5Y, read-out: IC50 of niacin's inhibitory effect on Aβ42 production, niacin alone, SH-SY5Y cells, overnight incubation",10.6 µM
same,IC50,"[1]; read-out: IC50 of niacin's inhibitory effect on Aβ42 production, niacin alone, SH-SY5Y cells, overnight incubation",~10.2 µM
CCCc1ccc(OC(=O)c2cccnc2)c(OC)c1 [Niacin-dihydro eugenol hybrid],IC50,"[1]; read-out: IC50 (μM) in cell based abeta assay, blocking Aβ42 secretion",> 50 µM
COc1cc(C(C)=O)ccc1OC(=O)c1cccnc1 [Niacin-apocynin hybrid],IC50,[1]; [4],25.3 µM
"COc1cc(C=O)ccc1OC(=O)c1cccnc1 [Niacin-vanillin hybrid, Nicotinic acid 4-formyl-2-methoxy-phenyl ester]",IC50,[1]; [4],44.6 µM
